US4748161A, “Triterpenyl esters of organic acids and hypolipidemic agents composed of them” (Amano Pharmaceutical Co., Ltd., priority 1984, dated 1988)

System: serum lipids and serum lipid hydroperoxide
Assay: Pharmacological test method A for anti-hyperlipidemic activity (serum lipids, 2 weeks feeding)
Type: in vivo, male Wistar strain rats
Conditions: for AI [(TC - HDL-C)/(HDL-C)] / HDL-C in serum / LPO in serum / PL in serum / TC in serum / TG in serum: 1% in hyperlipidemic diet, 2 weeks
Method in brief: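 Male Wistar rats (100±lg, 10 per group) fed 10 g/day for 2 weeks of a 1% cholesterol/0.5% cholic acid diet, test groups with 1% each of cycloartenol, 24-methylenecycloartanol and cyclobranol. After 16 h fast, aortic blood serum assayed enzymatically/colorimetrically for TC, HDL-C, TG, PL, LPO.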

Molecule: Cycloartenyl-3,4-dipropionyloxycinnamate [Example 3]
- AI [(TC - HDL-C)/(HDL-C)]: 1.605
- HDL-C in serum: 76.8 mg/dL
- LPO in serum: 2.40 nmol/mL
- PL in serum: 167.0 mg/dL
- TC in serum: 200.1 mg/dL
- TG in serum: 33.3 mg/dL
- AI Diff. (Table 2, versus control group): +0.088 mg/dl
- AI % of diff. (versus control group): +5.8%
- HDL-C % of diff. (versus control group): -5.8%
- HDL-C Diff. (versus control group): -4.7 mg/dL
- LPO % of diff. (versus control group): +5.8%
- LPO Diff. (versus control group): +0.13 nmol/ml
- PL % of diff. (versus control group): -3.8%
- PL Diff. (versus control group): -6.6 mg/dL
- TC % of diff. (versus control group): -2.4%
- TC Diff. (versus control group): -5.0 mg/dL
- TG % of diff. (versus control group): -2.9%
- TG Diff. (versus control group): -1.0 mg/dL

Molecule: CCOc1cc(C(=O)OC2CCC34CC35CCC3(C)C(C(C)CCC=C(C)C)CCC3(C)C5CCC4C2(C)C)ccc1O (stereo not drawn) [Example 60, cycloartenyl-3-ethoxy-4-hydroxybenzoate]
- AI [(TC - HDL-C)/(HDL-C)]: 0.609
- HDL-C in serum: 102.5 mg/dL
- LPO in serum: 1.98 nmol/mL
- PL in serum: 161.4 mg/dL
- TC in serum: 164.9 mg/dL
- TG in serum: 32.8 mg/dL
- AI % of diff. (versus control group): -39.2%
- AI Diff. (versus control group): -0.393
- HDL-C % of diff. (versus control group): +6.5%
- HDL-C Diff. (versus control group): +6.3 mg/dl
- LPO % of diff. (versus control group): -15.0%
- LPO Diff. (versus control group): -0.35 nmol/mL
- PL % of diff. (versus control group): -10.8%
- PL Diff. (versus control group): -19.5 mg/dL
- TC % of diff. (versus control group): 14.4%
- TC Diff. (versus control group): -27.7 mg/dL
- TG % of diff. (versus control group): -1.2%
- TG Diff. (versus control group): -0.4 mg/dL

Molecule: CC(C)=CCCC(C)C1CCC2(C)C3CCC4C(C)(C)C(OC(=O)c5cccc(O)c5)CCC45CC35CCC12C (stereo not drawn) [Example 12, cycloartenyl-m-hydroxybenzoate]
- AI [(TC - HDL-C)/(HDL-C)]: 1.571
- HDL-C in serum: 58.5 mg/dL
- LPO in serum: 2.03 nmol/mL
- PL in serum: 140.4 mg/dL
- TC in serum: 150.4 mg/dL
- TG in serum: 24.0 mg/dL
- AI % of diff. (versus control group): -14.9%
- AI Diff. (versus control group): -0.276
- HDL-C % of diff. (versus control group): -0.3%
- HDL-C Diff. (versus control group): -0.2 mg/dL
- LPO % of diff. (versus control group): -13.2%
- LPO Diff. (versus control group): -0.31 nmol/mL
- PL % of diff. (versus control group): -5.4%
- PL Diff. (versus control group): -8.0 mg/dL
- TC % of diff. (versus control group): -10.0%
- TC Diff. (versus control group): -16.7 mg/dL
- TG % of diff. (versus control group): -3.2%
- TG Diff. (versus control group): -0.8 mg/dL

Molecule: C=C(CCC(C)C1CCC2(C)C3CCC4C(C)(C)C(OC(=O)c5cccc(N)c5)CCC45CC35CCC12C)C(C)C (stereo not drawn) [Example 100, 24-Methylenecyloartanyl ester of m-aminobenzoic acid]
- AI [(TC - HDL-C)/(HDL-C)]: 0.766
- HDL-C in serum: 90.1 mg/dL
- LPO in serum: 1.68 nmol/mL
- PL in serum: 155.6 mg/dL
- TC in serum: 159.1 mg/dL
- TG in serum: 34.3 mg/dL
- AI % of diff. (versus control group): -37.3%
- AI Diff. (versus control group): -0.456
- HDL-C % of diff. (versus control group): +4.2%
- HDL-C Diff. (versus control group): +3.6 mg/dl
- LPO % of diff. (versus control group): -25.2%
- LPO Diff. (versus control group): -0.56 nmol/mL
- PL % of diff. (versus control group): -10.2%
- PL Diff. (versus control group): -17.6 mg/dL
- TC % of diff. (versus control group): -17.2%
- TC Diff. (versus control group): -33.1 mg/dL
- TG % of diff. (versus control group): -5.5%
- TG Diff. (versus control group): -2.0 mg/dL

Molecule: CC(C)=C(C)CCC(C)C1CCC2(C)C3CCC4C(C)(C)C(OC(=O)c5cccnc5)CCC45CC35CCC12C (stereo not drawn) [Example 50, cyclobranylnicotinate]
- AI [(TC - HDL-C)/(HDL-C)]: 0.697
- HDL-C in serum: 95.7 mg/dL
- LPO in serum: 1.87 nmol/mL
- PL in serum: 138.8 mg/dL
- TC in serum: 162.4 mg/dL
- TG in serum: 34.7 mg/dL
- AI % of diff. (versus control group): -43.0%
- AI Diff. (versus control group): -0.525
- HDL-C % of diff. (versus control group): 10.6%
- HDL-C Diff. (versus control group): +9.2 mg/dl
- LPO % of diff. (versus control group): -16.7%
- LPO Diff. (versus control group): -0.37 nmol/mL
- PL % of diff. (versus control group): -19.6%
- PL Diff. (versus control group): -33.8 mg/dL
- TC % of diff. (versus control group): -15.5%
- TC Diff. (versus control group): -29.8 mg/dL
- TG % of diff. (versus control group): -4.3%
- TG Diff. (versus control group): -1.6 mg/dL

Molecule: C=C(CCC(C)C1CCC2(C)C3CCC4C(C)(C)C(OC(=O)c5ccc(O)c(OC)c5)CCC45CC35CCC12C)C(C)C (stereo not drawn) [Example 86, 24-Methylenecycloartanyl ester of 4-hydroxy-3-methoxybenzoic acid]
- AI [(TC - HDL-C)/(HDL-C)]: 0.802
- HDL-C in serum: 91.9 mg/dL
- LPO in serum: 2.06 nmol/mL
- PL in serum: 163.2 mg/dL
- TC in serum: 165.6 mg/dL
- TG in serum: 33.1 mg/dL
- AI % of diff. (versus control group): -20.0%
- AI Diff. (versus control group): -0.200
- HDL-C % of diff. (versus control group): -4.5%
- HDL-C Diff. (versus control group): -4.3 mg/dL
- LPO % of diff. (versus control group): -11.6%
- LPO Diff. (versus control group): -0.27 nmol/mL
- PL % of diff. (versus control group): -9.8%
- PL Diff. (versus control group): -17.7 mg/dL
- TC % of diff. (versus control group): -14.0%
- TC Diff. (versus control group): -27.0 mg/dL
- TG % of diff. (versus control group): -0.3%
- TG Diff. (versus control group): -0.1 mg/dL

Molecule: CC(C)=C(C)CCC(C)C1CCC2(C)C3CCC4C(C)(C)C(OC(=O)c5cccc(N)c5)CCC45CC35CCC12C (stereo not drawn) [Example 49, cyclobranyl-m-aminobenzoate]
- AI [(TC - HDL-C)/(HDL-C)]: 1.288
- HDL-C in serum: 58.0 mg/dL
- LPO in serum: 2.02 nmol/mL
- PL in serum: 128.4 mg/dL
- TC in serum: 132.7 mg/dL
- TG in serum: 18.3 mg/dL
- AI % of diff. (versus control group): -30.3%
- AI Diff. (versus control group): -0.559
- HDL-C % of diff. (versus control group): -1.2%
- HDL-C Diff. (versus control group): -0.7 mg/dL
- LPO % of diff. (versus control group): -13.7%
- LPO Diff. (versus control group): -0.32 nmol/mL
- PL % of diff. (versus control group): -13.5%
- PL Diff. (versus control group): -20.0 mg/dL
- TC % of diff. (versus control group): -20.6%
- TC Diff. (versus control group): -34.4 mg/dL
- TG % of diff. (versus control group): -26.2%
- TG Diff. (versus control group): -6.5 mg/dL

Molecule: COc1cc(C=CC(=O)OC2CCC34CC35CCC3(C)C(C(C)CCC(C)=C(C)C)CCC3(C)C5CCC4C2(C)C)ccc1O (stereo not drawn) [Example 100-2, cyclobranyl-4-hydroxy-3-methoxycinnamate]
- AI [(TC - HDL-C)/(HDL-C)]: 0.772
- HDL-C in serum: 94.1 mg/dL
- LPO in serum: 1.59 nmol/mL
- PL in serum: 143.0 mg/dL
- TC in serum: 166.7 mg/dL
- TG in serum: 21.6 mg/dL
- AI % of diff. (versus control group): -49.1%
- AI Diff. (versus control group): -0.745
- HDL-C % of diff. (versus control group): +18.5%
- HDL-C Diff. (versus control group): +15.1 mg/dl
- LPO % of diff. (versus control group): -29.8%
- LPO Diff. (versus control group): -0.68 nmol/mL
- PL % of diff. (versus control group): -17.6%
- PL Diff. (versus control group): -30.6 mg/dL
- TC % of diff. (versus control group): -18.7%
- TC Diff. (versus control group): -38.4 mg/dL
- TG % of diff. (versus control group): -37.0%
- TG Diff. (versus control group): -12.7 mg/dL

Molecule: CC(C)=CCCC(C)C1CCC2(C)C3CCC4C(C)(C)C(OC(=O)c5ccc(O)c(O)c5)CCC45CC35CCC12C (stereo not drawn) [Example 27, cycloartenyl-3,4-dihydroxybenzoate]
- AI [(TC - HDL-C)/(HDL-C)]: 0.955
- HDL-C in serum: 95.2 mg/dL
- LPO in serum: 1.99 nmol/mL
- PL in serum: 160.3 mg/dL
- TC in serum: 186.1 mg/dL
- TG in serum: 40.4 mg/dL
- AI % of diff. (versus control group): -43.3%
- AI Diff. (versus control group): -0.729
- HDL-C % of diff. (versus control group): +17.7%
- HDL-C Diff. (versus control group): +14.3 mg/dl
- LPO % of diff. (versus control group): -14.0%
- LPO Diff. (versus control group): -0.32 nmol/mL
- PL % of diff. (versus control group): -10.8%
- PL Diff. (versus control group): -19.4 mg/dL
- TC % of diff. (versus control group): -14.3%
- TC Diff. (versus control group): -31.0 mg/dL
- TG % of diff. (versus control group): -5.5%
- TG Diff. (versus control group): -2.4 mg/dL
